Assay results taken from US12064426B2, “Selective inhibitors of ROCK1 and ROCK2 protein kinases and uses thereof” (GENOSCO Inc., priority 2021, dated 2024).

Assays:
[1] = biological target: T1, Recombinant ROCK2 (amino acids 5-554) (Homo sapiens, UniProt O75116); test: ROCK inhibition assay, LANCE Ultra TR-FRET kinase assay (ROCK2); assay type: biochemical; conditions: 4 μM ATP, 50 nM ULight-CREBtide substrate
T1 construct: ROCK2 (amino acids 5-554); by word order, ROCK2 from SignalChem
Summary of the method: (§1)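 Reaction buffer 50 mM HEPES pH 7.5, 10 mM MgCl2, 1 mM EGTA, 2 mM DTT; kinase, ULight-CREBtide (50 nM) and ATP (ROCK1 1 μM, ROCK2 4 μM) react 1 h at room temperature. Phospho-Ser133 detected by europium antibody after 10 mM EDTA stop, TR-FRET ex 320 nm; IC50 calculated.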

[2] = biological target: T2, Recombinant ROCK1 (amino acids 1-477) (Homo sapiens, UniProt Q13464); test: ROCK inhibition assay, LANCE Ultra TR-FRET kinase assay (ROCK1); assay type: biochemical; conditions: 1 μM ATP, 50 nM ULight-CREBtide substrate
T2 construct: Recombinant ROCK1 (amino acids 1-477); by word order, ROCK1 from Carna Biosciences
T2 sequence (Q13464 1-477): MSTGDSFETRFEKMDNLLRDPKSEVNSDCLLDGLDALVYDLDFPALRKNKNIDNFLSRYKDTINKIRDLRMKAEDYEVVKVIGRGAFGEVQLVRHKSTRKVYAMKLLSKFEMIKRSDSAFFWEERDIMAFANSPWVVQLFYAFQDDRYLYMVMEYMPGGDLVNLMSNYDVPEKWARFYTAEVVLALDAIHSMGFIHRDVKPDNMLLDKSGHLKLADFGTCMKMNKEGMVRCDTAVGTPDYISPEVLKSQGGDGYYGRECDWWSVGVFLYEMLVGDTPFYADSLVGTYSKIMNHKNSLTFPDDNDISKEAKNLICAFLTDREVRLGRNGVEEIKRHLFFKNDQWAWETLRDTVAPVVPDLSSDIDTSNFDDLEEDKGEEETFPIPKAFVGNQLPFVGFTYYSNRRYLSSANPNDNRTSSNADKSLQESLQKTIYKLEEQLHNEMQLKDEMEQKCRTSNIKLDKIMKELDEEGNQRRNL
Summary of the method: as §1

T1 sequence (O75116 5-554): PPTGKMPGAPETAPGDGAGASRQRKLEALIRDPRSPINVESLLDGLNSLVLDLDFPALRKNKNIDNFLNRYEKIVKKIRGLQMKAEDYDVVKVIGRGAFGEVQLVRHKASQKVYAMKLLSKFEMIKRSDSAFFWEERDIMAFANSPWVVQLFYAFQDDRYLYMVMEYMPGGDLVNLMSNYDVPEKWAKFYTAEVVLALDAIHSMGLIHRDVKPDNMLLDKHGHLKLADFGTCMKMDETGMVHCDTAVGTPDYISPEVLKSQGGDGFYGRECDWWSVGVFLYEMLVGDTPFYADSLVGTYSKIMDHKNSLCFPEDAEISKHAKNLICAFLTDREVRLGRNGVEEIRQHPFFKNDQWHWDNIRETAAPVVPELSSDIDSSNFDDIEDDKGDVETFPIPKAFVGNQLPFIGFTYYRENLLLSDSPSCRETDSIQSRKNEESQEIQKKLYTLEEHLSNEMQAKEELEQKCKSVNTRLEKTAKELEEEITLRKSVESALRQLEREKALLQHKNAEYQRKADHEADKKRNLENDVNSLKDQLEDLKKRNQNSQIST

SMILES	IC50 [1]	IC50 [2]
O=C(NCC1CCN(C2COC2)CC1)c1cc(F)cc(Cn2ccc3cc(N4CCOCC4)ccc3c2=O)c1 [Compound 228]	10 to 100 nM	101 to 500 nM
O=C(NCCN1CCOCC1)c1cc(F)cc(Cn2ccc3cc(N4CCOCC4)ccc3c2=O)c1 [Compound 229]	10 to 100 nM	11 to 100 nM
O=C(NCCN1CCOCC1)c1cccc(Cn2ccc3cc(N4CCOCC4)ccc3c2=O)c1 [Compound 230]	10 to 100 nM	11 to 100 nM
CNC(=O)c1cccc(Cn2ccc3cc(-c4cc[nH]c4C)ncc3c2=O)c1 [Compound 231, N-methyl-3-((6-(2-methyl-1H-pyrrol-3-yl)-1-oxo-2,7-naphthyridin-2(1H)-yl)methyl)benzamide]	< 10 nM	11 to 100 nM
[2H]C([2H])([2H])NC(=O)c1cccc(Cn2ccc3cc(-c4cc[nH]c4C)ncc3c2=O)c1 [Compound 232]	< 10 nM	11 to 100 nM
[2H]C([2H])([2H])NC(=O)c1cccc(Cn2ccc3cc(-c4cn[nH]c4C(F)(F)F)ncc3c2=O)c1 [Compound 234]	< 10 nM	11 to 100 nM
CNC(=O)c1cccc(Cn2ccc3cc(-c4c[nH]nc4Cl)ncc3c2=O)c1 [Compound 235]	< 10 nM	11 to 100 nM
[2H]C([2H])([2H])NC(=O)c1cccc(Cn2ccc3cc(-c4c[nH]nc4Cl)ncc3c2=O)c1 [Compound 236]	< 10 nM	11 to 100 nM
CNC(=O)c1cccc(Cn2ccc3cc(-c4cn[nH]c4C(F)F)ncc3c2=O)c1 [Compound 237]	< 10 nM	11 to 100 nM
[2H]C([2H])([2H])NC(=O)c1cccc(Cn2ccc3cc(-c4cn[nH]c4C(F)F)ncc3c2=O)c1 [Compound 238]	< 10 nM	11 to 100 nM
CNC(=O)c1cccc(Cn2ccc3cc(-c4c[nH]nc4C)ncc3c2=O)c1 [Compound 239]	< 10 nM	11 to 100 nM
CNC(=O)c1cccc(Cn2ccc3cc(-c4ccnn4C)ncc3c2=O)c1 [Compound 240]	10 to 100 nM	101 to 500 nM
CNC(=O)c1cccc(Cn2ccc3cc(-c4conc4C)ncc3c2=O)c1 [Compound 241]	10 to 100 nM	101 to 500 nM
CNC(=O)c1cccc(Cn2ccc3cc(-c4cn[nH]c4C(F)(F)F)cnc3c2=O)c1 [Compound 242]	100 to 500 nM	> 501 nM
CNC(=O)c1cccc(Cn2ccc3cc(-c4conc4C)cnc3c2=O)c1 [Compound 243]	100 to 500 nM	> 501 nM
CNC(=O)c1cccc(Cn2ccc3cc(-c4ccnc(N)c4)ncc3c2=O)c1 [Compound 244]	10 to 100 nM	101 to 500 nM
CNC(=O)c1cc(F)cc(Cn2ccc3cc(-c4ccnn4C)ncc3c2=O)c1 [Compound 245]	10 to 100 nM	101 to 500 nM
CNC(=O)c1cc(F)cc(Cn2ccc3cc(-c4cn[nH]c4C(F)(F)F)ncc3c2=O)c1 [Compound 246]	< 10 nM	11 to 100 nM
CNC(=O)c1cc(F)cc(Cn2ccc3cc(-c4ccoc4C)ncc3c2=O)c1 [Compound 247]	> 500 nM	> 501 nM
CNC(=O)c1cc(F)cc(Cn2ccc3cc(-c4cn[nH]c4C)ncc3c2=O)c1 [Compound 248]	10 to 100 nM	11 to 100 nM

SMILES	IC50 [1]	IC50 [2]
CNC(=O)c1cc(F)cc(Cn2ccc3cc(-c4c[nH]nc4Cl)ncc3c2=O)c1 [Compound 249]	< 10 nM	< 10 nM
CNC(=O)c1cc(F)cc(Cn2ccc3cc(-c4ccnc(N)c4)ncc3c2=O)c1 [Compound 251]	10 to 100 nM	101 to 500 nM
CNC(=O)c1cc(F)cc(Cn2ccc3cc(-c4c[nH]nc4C(F)F)ncc3c2=O)c1 [Compound 252]	< 10 nM	11 to 100 nM
Cc1n[nH]cc1-c1cc2ccn(Cc3cc(F)cc(C(=O)NC4CCOCC4)c3)c(=O)c2cn1 [Compound 253]	< 10 nM	11 to 100 nM
CCNC(=O)c1cc(F)cc(Cn2ccc3cc(-c4c[nH]nc4C)ncc3c2=O)c1 [Compound 254]	< 10 nM	11 to 100 nM
Cc1n[nH]cc1-c1cc2ccn(Cc3cc(F)cc(C(=O)NCC4CCN(C)CC4)c3)c(=O)c2cn1 [Compound 256]	< 10 nM	< 10 nM
CN1CCC(CNC(=O)c2cc(F)cc(Cn3ccc4cc(-c5c[nH]nc5C(F)(F)F)ncc4c3=O)c2)CC1 [Compound 257]	< 10 nM	< 10 nM
O=C(NCC1COC1)c1cc(F)cc(Cn2ccc3cc(-c4c[nH]nc4C(F)(F)F)ncc3c2=O)c1 [Compound 258]	< 10 nM	11 to 100 nM
CN1CCC(NC(=O)c2cc(F)cc(Cn3ccc4cc(-c5c[nH]nc5C(F)(F)F)ncc4c3=O)c2)CC1 [Compound 259]	< 10 nM	11 to 100 nM
O=C(N[C@H]1CC[C@H](O)CC1)c1cc(F)cc(Cn2ccc3cc(-c4c[nH]nc4C(F)(F)F)ncc3c2=O)c1 [Compound 260]	< 10 nM	11 to 100 nM
CN1CCC(NC(=O)c2cc(F)cc(Cn3ccc4cc(-c5c[nH]nc5Cl)ncc4c3=O)c2)CC1 [Compound 261]	< 10 nM	< 10 nM
O=C(N[C@H]1CC[C@@H](O)CC1)c1cc(F)cc(Cn2ccc3cc(-c4c[nH]nc4Cl)ncc3c2=O)c1 [Compound 262]	< 10 nM	< 10 nM
O=C(N[C@H]1CC[C@H](O)CC1)c1cc(F)cc(Cn2ccc3cc(-c4c[nH]nc4Cl)ncc3c2=O)c1 [Compound 263]	< 10 nM	11 to 100 nM
CC(C)NC(=O)c1cc(F)cc(Cn2ccc3cc(-c4c[nH]nc4Cl)ncc3c2=O)c1 [Compound 264]	< 10 nM	11 to 100 nM
Cc1nocc1-c1cc2ccn(Cc3cc(F)cc(C(=O)NCC4CCN(C)CC4)c3)c(=O)c2cn1 [Compound 265]	< 10 nM	11 to 100 nM
Cc1nocc1-c1cc2ccn(Cc3cc(F)cc(C(=O)NCC4CCOCC4)c3)c(=O)c2cn1 [Compound 266]	< 10 nM	11 to 100 nM
Cc1nocc1-c1cc2ccn(Cc3cc(F)cc(C(=O)NCCN4CCOCC4)c3)c(=O)c2cn1 [Compound 267]	< 10 nM	11 to 100 nM
CN1CCN(CCNC(=O)c2cc(F)cc(Cn3ccc4cc(-c5ccnn5C)ncc4c3=O)c2)CC1 [Compound 268]	< 10 nM	11 to 100 nM
Cn1nccc1-c1cc2ccn(Cc3cc(F)cc(C(=O)NCC4COC4)c3)c(=O)c2cn1 [Compound 269]	10 to 100 nM	101 to 500 nM
Cn1nccc1-c1cc2ccn(Cc3cc(F)cc(C(=O)NCC4CCOCC4)c3)c(=O)c2cn1 [Compound 270]	10 to 100 nM	11 to 100 nM

SMILES	IC50 [1]	IC50 [2]
Cn1nccc1-c1cc2ccn(Cc3cc(F)cc(C(=O)NCCc4cccnc4)c3)c(=O)c2cn1 [Compound 271]	< 10 nM	< 10 nM
CC(C)NC(=O)c1cc(F)cc(Cn2ccc3cc(-c4c[nH]nc4Br)ncc3c2=O)c1 [Compound 272]	< 10 nM	< 10 nM
CN1CCC(CNC(=O)c2cc(F)cc(Cn3ccc4cc(-c5c[nH]nc5Br)ncc4c3=O)c2)CC1 [Compound 273]	< 10 nM	< 10 nM
CN1CCC(CNC(=O)c2cc(F)cc(Cn3ccc4cc(-c5c[nH]nc5C(F)F)ncc4c3=O)c2)CC1 [Compound 274]	< 10 nM	< 10 nM
O=C(N[C@H]1CC[C@@H](O)CC1)c1cc(F)cc(Cn2ccc3cc(-c4c[nH]nc4C(F)F)ncc3c2=O)c1 [Compound 275]	< 10 nM	11 to 100 nM
O=C(NCC1CCOCC1)c1cc(F)cc(Cn2ccc3cc(-c4c[nH]nc4C(F)F)ncc3c2=O)c1 [Compound 276]	< 10 nM	11 to 100 nM
[2H]C([2H])([2H])NC(=O)c1cccc(Cn2ccc3cc(-c4cn[nH]c4C(F)(F)F)ccc3c2=O)c1 [Compound 278]	< 10 nM	11 to 100 nM
CNC(=O)c1cccc(C(C)n2ccc3cc(-c4cn[nH]c4C(F)(F)F)ccc3c2=O)c1 (stereo not shown) [Compound 279]	< 10 nM	11 to 100 nM
[2H]C([2H])([2H])NC(=O)c1cc(F)cc(Cn2ccc3cc(-c4cn[nH]c4C(F)(F)F)ccc3c2=O)c1 [Compound 282]	< 10 nM	11 to 100 nM
CNC(=O)c1cc(F)cc(C(C)n2ccc3cc(-c4cn[nH]c4C(F)(F)F)ccc3c2=O)c1 (stereo not shown) [Compound 283]	< 10 nM	11 to 100 nM
CNC(=O)c1cc(Cn2ccc3cc(-c4cn[nH]c4C(F)(F)F)ccc3c2=O)ccc1F [Compound 284]	10 to 100 nM	101 to 500 nM
CNC(=O)c1cc(Cl)cc(Cn2ccc3cc(-c4cn[nH]c4C(F)(F)F)ccc3c2=O)c1 [Compound 285]	10 to 100 nM	101 to 500 nM
CNC(=O)c1cccc(Cn2ccc3cc(-c4cn[nH]c4C(F)F)ccc3c2=O)c1 [Compound 286]	< 10 nM	11 to 100 nM
CNC(=O)c1cccc(C(C)n2ccc3cc(-c4cn[nH]c4C(F)F)ccc3c2=O)c1 (stereo not shown) [Compound 287]	< 10 nM	11 to 100 nM
[2H]C([2H])([2H])NC(=O)c1cccc(C(C)n2ccc3cc(-c4cn[nH]c4C(F)F)ccc3c2=O)c1 (stereo not shown) [Compound 288]	< 10 nM	11 to 100 nM
CNC(=O)c1cc(F)cc(Cn2ccc3cc(-c4cn[nH]c4C(F)F)ccc3c2=O)c1 [Compound 289]	< 10 nM	11 to 100 nM
CNC(=O)c1cccc(Cn2ccc3cc(-c4cn[nH]c4Cl)ccc3c2=O)c1 [Compound 290]	< 10 nM	11 to 100 nM
[2H]C([2H])([2H])NC(=O)c1cccc(Cn2ccc3cc(-c4cn[nH]c4Cl)ccc3c2=O)c1 [Compound 291]	< 10 nM	11 to 100 nM
CNC(=O)c1cccc(C(C)n2ccc3cc(-c4cn[nH]c4Cl)ccc3c2=O)c1 (stereo not shown) [Compound 292]	< 10 nM	11 to 100 nM
